Reference: patent US20240108745A1, “BIOACTIVE SUBSTANCE CONJUGATE, PREPARATION METHOD THEREFOR AND USE THEREOF” (MEDILINK THERAPEUTICS (SUZHOU) CO., LTD., priority 2021, published 2024)

Columns and labels:
Type in all cases: cell-based
[1] = test system: NCl-H358 cells; assay: Assay I of bioactive molecules on cell viability in vitro (CCK8); conditions: Homo sapiens, read-out: EC50(nM), killing of NCl-H358 cells
Experimental: (§1) Tumor cells were first cultured; the bioactive molecules of the present disclosure were co-cultured with tumor cells, and then CCK8 reagent (Dojindo Laboratories (Shanghai), Cat: CK04, Lot: JJ744) was added, and the activity of dehydrogenase in mitochondria was detected by reading (detection wavelength 450 nm) on a microplate reader (manufacturer: Molecular Devices, model: SpectraMax M2), to evaluate the inhibitory effect of bioactive molecules on cell proliferation.
(§2) In vitro cell viability assay method: bioactive molecules (12 concentration gradients) were diluted with corresponding assay medium (containing 2% FBS). The tumor cells were digested by conventional methods using trypsin, and cells in tube were collected and counted, then resuspended in the corresponding assay media (containing 2% FBS). The diluted bioactive molecules were added to a 96-well plate, followed by the cells. Then, 20 μL of CCK8 reagent was added to each well, and the reaction was carried out for 4 h, then the plate was read on a microplate reader (detection wavelength was 450 nm). The experimental results are shown in Tables 6.1, 6.2, 6.3, 6.4, and 6.5.

[2] = test system: HT29 cells; assay: as above; conditions: Homo sapiens, HT-29, CCK8; read-out: EC50(nM), killing of HT29 cells
Experimental: as §1, §2

[3] = test system: LS174T cells; assay: as above; conditions: Homo sapiens, read-out: EC50(nM), killing of LS174T cells
Experimental: as §1, §2

[4] = test system: HT29 cells; assay: Assay III of bioactive molecules on cell viability in vitro (CCK8); conditions: Homo sapiens, HT-29; CCK8, 3-4 days (Assay III); read-out: EC50(nM), killing of HT29 cells
Experimental: Tumor cells HT29 (having a same source as the above) were first cultured. The bioactive molecules or fragments of the present disclosure were co-cultured with tumor cells, and then CCK8 reagent (Dojindo Laboratories (Shanghai), Cat: CK04, Lot: JJ744) was added, and the activity of dehydrogenase in mitochondria was detected by reading (detection wavelength 450 nm) on a microplate reader (manufacturer: Molecular Devices, model: SpectraMax M2), to evaluate the inhibitory effect of bioactive molecules on cell proliferation.
(§3) In vitro cell viability assay method: the tumor cells were digested by conventional methods using trypsin, and cells in tube were collected and counted, and then resuspended in the corresponding assay media (containing 2% FBS), which was added to a 96-well plate at 5000-10000 cells/well. Bioactive molecules were diluted with DMSO, and then added to a 96-well plate at 100 μL, the initial concentration was 10M, followed by 3-fold serial dilution (12 concentration gradients). The plate was incubated for 3-4 days at 37° C. under 5% CO2. Then, 20 μL of CCK8 reagent was added to each well, and the reaction was carried out for 2-6 h. The plate was read on a microplate reader (detection wavelength was 450 nm).

[5] = test system: PC-9; assay: Assay II of bioactive molecules on cell viability in vitro (CCK8); conditions: Homo sapiens, CCK8, 3-4 days
Experimental: as §1, with “Tumor cells NUCG-4, PC-9, HT29, NCI-H358, KYSE520, A431 and A549 were first” for “Tumor cells were first”, “bioactive molecules or fragments of the” for “bioactive molecules of the”
as §3, with “and then 100 μL was added to” for “and then added to”, “a 96-well plate, the initial” for “a 96-well plate at 100 μL, the initial”, “concentration was 10 μM, followed by” for “concentration was 10M, followed by”

[6] = test system: HT29; assay: as above; conditions: Homo sapiens, HT-29; CCK8, 3-4 days
Experimental: as §1, with “Tumor cells NUCG-4, PC-9, HT29, NCI-H358, KYSE520, A431 and A549 were first” for “Tumor cells were first”, “bioactive molecules or fragments of the” for “bioactive molecules of the”
as §3, with “and then 100 μL was added to” for “and then added to”, “a 96-well plate, the initial” for “a 96-well plate at 100 μL, the initial”, “concentration was 10 μM, followed by” for “concentration was 10M, followed by”

[7] = test system: NCI-H358; assay: as above; conditions: Homo sapiens, CCK8, 3-4 days
Experimental: as §1, with “Tumor cells NUCG-4, PC-9, HT29, NCI-H358, KYSE520, A431 and A549 were first” for “Tumor cells were first”, “bioactive molecules or fragments of the” for “bioactive molecules of the”
as §3, with “and then 100 μL was added to” for “and then added to”, “a 96-well plate, the initial” for “a 96-well plate at 100 μL, the initial”, “concentration was 10 μM, followed by” for “concentration was 10M, followed by”

[8] = test system: A549; assay: as above; conditions: Homo sapiens, CCK8, 3-4 days
Experimental: as §1, with “Tumor cells NUCG-4, PC-9, HT29, NCI-H358, KYSE520, A431 and A549 were first” for “Tumor cells were first”, “bioactive molecules or fragments of the” for “bioactive molecules of the”
as §3, with “and then 100 μL was added to” for “and then added to”, “a 96-well plate, the initial” for “a 96-well plate at 100 μL, the initial”, “concentration was 10 μM, followed by” for “concentration was 10M, followed by”

[9] = test system: A431; assay: as above; conditions: Homo sapiens, A-431; CCK8, 3-4 days
Experimental: as §1, with “Tumor cells NUCG-4, PC-9, HT29, NCI-H358, KYSE520, A431 and A549 were first” for “Tumor cells were first”, “bioactive molecules or fragments of the” for “bioactive molecules of the”
as §3, with “and then 100 μL was added to” for “and then added to”, “a 96-well plate, the initial” for “a 96-well plate at 100 μL, the initial”, “concentration was 10 μM, followed by” for “concentration was 10M, followed by”

[10] = test system: NUCG-4; assay: as above; conditions: CCK8, 3-4 days
Experimental: as §1, with “Tumor cells NUCG-4, PC-9, HT29, NCI-H358, KYSE520, A431 and A549 were first” for “Tumor cells were first”, “bioactive molecules or fragments of the” for “bioactive molecules of the”
as §3, with “and then 100 μL was added to” for “and then added to”, “a 96-well plate, the initial” for “a 96-well plate at 100 μL, the initial”, “concentration was 10 μM, followed by” for “concentration was 10M, followed by”

Row | Compound | EC50 [1] [nM] | EC50 [2] [nM] | other results
1 | CC[C@@]1(O)C(=O)OCc2c1cc1n(c2=O)Cc2c-1nc1cc3c(cc1c2-c1ccc(N)cc1)OCO3 [Example A1.4, (S)-14-(4-aminophenyl)-7-ethyl-7-hydroxy-10,13-dihydro-11H-[1,3]dioxolo[4,5-g]pyrano[3′,4′:6,7]indolizino[1,2-b]quinolin-8,11(7H)-dione] | 29.9 | 29.4 | 
2 | CC[C@@]1(O)C(=O)OCc2c1cc1n(c2=O)Cc2c-1nc1cc3c(cc1c2CCN(C(=O)CO)C(C)C)OCO3 [Example A1.8, (S)—N-(2-(7-ethyl-7-hydroxy-8,11-dioxo-7,8,11,13-tetrahydro-10H-[1,3]dioxolo[4,5-g]pyrano[3′,4′:6,7]indolizino[1,2-b]quinolin-14-yl)ethyl)-2-hydroxy-N-isopropylacetamide] | 296 | 367 | 
3 | CC[C@@]1(O)C(=O)OCc2c1cc1n(c2=O)Cc2c-1nc1cc3c(cc1c2CCNC(C)C)OCO3 [Example A1.8D, (S) 7-ethyl-7-hydroxy-14-(2-(isopropylamine)ethyl)-10,13-dihydro-11H-[1,3]dioxolo[4,5-g]pyrano[3′,4′:6,7]indolizino[1,2-b]quinolin-8,11(7H)-dione] | 7.92 |  | 
4 | CC[C@@]1(O)C(=O)OCc2c1cc1n(c2=O)Cc2c-1nc1cc(F)c(C)cc1c2CCCO [Example A1.10, (S)-4-ethyl-8-fluoro-4-hydroxy-11-(3-hydroxypropyl)-9-methyl-1,12-dihydro-14H-pyrano[3′,4′:6,7]indolizino[1,2-b]quinolin-3,14(4H)-dione] | 8.11 | 5.96 | 
5 | CC[C@@]1(O)C(=O)OCc2c1cc1n(c2=O)Cc2c-1nc1cc(F)c(C)cc1c2CCCN [Example A1.11, (S)-4-ethyl-8-fluoro-4-hydroxy-11-(3-aminopropyl)-9-methyl-1,12-dihydro-14H-pyrano[3′,4′:6,7]indolizino[1,2-b]quinolin-3,14(4H)-dione] | 203 | 284 | 
6 | CC[C@@]1(O)C(=O)OCc2c1cc1n(c2=O)Cc2c-1nc1cc3c(cc1c2/C=C/CN)OCO3 [Example A1.12, (S,E)-14-(3-amino-1-propylen-1-yl)-7-ethyl-7-hydroxy-10,13-dihydro-11H-[1,3]dioxolo[4,5-g]pyrano[3′,4′:6,7]indolizino[1,2-b]quinolin-8,11(7H)-dione] | 167 | 212 | 
7 | CC[C@@]1(O)C(=O)OCc2c1cc1n(c2=O)Cc2c-1nc1cc3c(cc1c2/C=C/CO)OCO3 [Example A1.13, (S,E)-14-(3-hydroxy-1-propylen-1-yl)-7-ethyl-7-hydroxy-10,13-dihydro-11H-[1,3]dioxolo[4,5-g]pyrano[3′,4′:6,7]indolizino[1,2-b]quinolin-8,11(7H)-dione] | 49.2 | 96.8 | 
8 | CC[C@@]1(O)C(=O)OCc2c1cc1n(c2=O)Cc2c-1nc1cc(F)c(C)cc1c2/C=C/CO [Example A1.14, (S,E)-4-ethyl-8-fluoro-4-hydroxy-11-(3-hydroxy-1-propylen-1-yl)-9-methyl-1,12-dihydro-14H-pyrano[3′,4′:6,7]indolizino[1,2-b]quinolin--3,14(4H)-dione] | 123 | 156 | 
9 | CCCNCCc1c2c(nc3cc4c(cc13)OCO4)-c1cc3c(c(=O)n1C2)COC(=O)[C@]3(O)CC [Example A1.15a, (S)-7-ethyl-7-hydroxy-14-(2-(n-propylamino)ethyl)-10,13-dihydro-11H-[1,3]dioxolo[4,5-g]pyrano[3′,4′:6,7]indolizino[1,2-b]quinolin-8,11(7H)-dione] | 3.88 | 3.57 | EC50 [3]: 19.5 nM
10 | CCCN(CCc1c2c(nc3cc4c(cc13)OCO4)-c1cc3c(c(=O)n1C2)COC(=O)[C@]3(O)CC)C(=O)CO [Example A1.15b, (S)—N-(2-(7-ethyl-7-hydroxy-8,11-dioxo-7,8,11,13-tetrahydro-10H-[1,3]dioxolo[4,5-g]pyrano[3′,4′:6,7]indolizino[1,2-b]quinolin-14-yl)ethyl)-2-hydroxy-N-n-propylacetamide] |  | 47.5 | EC50 [3]: 44.6 nM
11 | CC[C@@]1(O)C(=O)OCc2c1cc1n(c2=O)Cc2c-1nc1cc3c(cc1c2-c1ccc(NC(=O)CN)cc1)OCO3 [Example B1.9, (S)-2-amino-N-(4-(7-ethyl-7-hydroxy-8,11-dioxo-7,8,11,13-tetrahydro-10H-[1,3]dioxolo[4,5-g]pyrano[3′,4′:6,7]indolizino[1,2-b]quinolin-14-yl)phenyl)acetamide] |  |  | EC50 [4]: 262 nM
12 | CC[C@@]1(O)C(=O)OCc2c1cc1n(c2=O)Cc2c-1nc1cc(F)c(C)cc1c2CCCOCNC(=O)CN [Example B1.12, (S)-2-amino-N-((4-(4-ethyl-8-fluoro-4-hydroxy-9-methyl-3,14-dioxo-3,4,12,14-tetrahydro-1H-pyrano[3′,4′:6,7]indolizino[1,2-b]quinolin-11-yl)propoxy)methyl)acetamide] |  |  | EC50 [4]: 85.9 nM
13 | CC[C@@]1(O)C(=O)OCc2c1cc1n(c2=O)Cc2c-1nc1cc3c(cc1c2CCCOCNC(=O)CN)OCO3 [Example B1.14, (S)-2-amino-N-((3-(7-ethyl-7-hydroxy-8,11-dioxo-7,8,11,13-tetrahydro-10H-[1,3]dioxolo[4,5-g]pyrano[3′,4′:6,7]indolizino[1,2-b]quinolin-14-yl)propoxy)methyl)acetamide] |  |  | EC50 [5]: 34.3 nM; EC50 [6]: 368 nM; EC50 [7]: 581 nM; EC50 [8]: 252 nM; EC50 [9]: 68 nM; EC50 [10]: 185 nM
14 | CC[C@@]1(O)C(=O)OCc2c1cc1n(c2=O)Cc2c-1nc1cc(F)c(C)cc1c2/C=C/COCNC(=O)CN [Example B1.17, (S,E)-2-amino-N-(((3-(4-ethyl-8-fluoro-4-hydroxy-9-methyl-3,14-oxo-3,4,12,14-tetrahydro-1H-pyrano[3′,4′:6,7]indolizino[1,2-b]quinolin-11-yl)allyl)oxy)methyl)acetamide] |  |  | EC50 [4]: 205 nM
